Consider 18 molecules from PubChem BioAssay AID256 (DTP/NCI, 2004).

The subject of the test is CD2F1 mice, L1210 leukemia ip, survival T/C. Put plainly: NCI In Vivo Anticancer Drug Screen. Data for tumor model L1210 Leukemia (intraperitoneal) in CD2F1 (CDF1) mice. To be noted: endpoint: mean survival time, higher = longer survival. The essentials: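 In this screen, transplantable tumors were grown in mice given either the compound or its vehicle. Results were expressed as the treated measurement relative to the control measurement.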

Where [1] appears, read: dose: 100.0 mg/kg/injection, schedule: Q04DX003 (ip), vehicle: saline with Tween-80.
Where [2] appears, read: dose: 200.0 mg/kg/injection, schedule: Q04DX003 (ip), vehicle: saline with Tween-80.
Where [3] appears, read: dose: 400.0 mg/kg/injection, schedule: Q04DX003 (ip), vehicle: saline with Tween-80.
Setting [4] is: dose: 100.0 mg/kg/injection, schedule: Q01DX001 (ip), vehicle: saline with Tween-80.
Where [5] appears, read: dose: 400.0 mg/kg/injection, schedule: Q01DX001 (ip), vehicle: saline with Tween-80.
Setting [6] is: dose: 100.0 mg/kg/injection, schedule: Q01DX009 (ip), vehicle: saline with Tween-80.
[7] abbreviates: dose: 200.0 mg/kg/injection, schedule: Q01DX009 (ip), vehicle: saline with Tween-80.
Setting [8] is: dose: 6.25 mg/kg/injection, schedule: Q01DX009 (ip), vehicle: saline.
Setting [9] is: dose: 12.5 mg/kg/injection, schedule: Q01DX009 (ip), vehicle: saline.
Where [10] appears, read: dose: 100.0 mg/kg/injection, schedule: Q01DX009 (ip), vehicle: saline.

Where “and” joins values, the source holds several entries; their conditions need not be identical. Equal values may be shown once. Toxic doses and inconclusive results are not listed.

On to `O=C1Nc2ccc([N+](=O)[O-])c3c([N+](=O)[O-])ccc1c23`, for which the T/C by setting is: under setting [1], 98 % of control; under setting [2], 97 % of control; under setting [3], 102 % of control.

Regarding `O=C(Nc1ccc2ccccc2c1-c1c(NC(=O)c2ccccc2)ccc2ccccc12)c1ccccc1`, the T/C reads like this: under setting [4], 91 % of control; under setting [5], 91 % of control.

With `COC1CCC(/C(C#N)=C/C2CCC(N(C)C)CC2)CC1` (stereo not drawn), the T/C reads like this: under setting [6], 89 % of control; under setting [7], 100 % of control; (dose: 400.0 mg/kg/injection, schedule: Q01DX009 (ip), vehicle: saline with Tween-80) 96 % of control.

Regarding `C1CC2CCC3CCCC4CCC(C1)C2C34` (stereo not drawn), the T/C (dose: 50.0 mg/kg/injection, schedule: Q01DX009 (ip), vehicle: saline with Tween-80) was 98 % of control; the T/C under setting [6] is 98 % of control; the T/C under setting [1] was 98 % of control; the T/C under setting [7] is 100 % of control; the T/C under setting [2] is 102 % of control.

Consider `CC(C(=O)c1ccccc1)C(N[N+](C)(C)C)c1ccccc1` (stereo not drawn), for which, where the note is “dose: 25.0 mg/kg/injection, schedule: Q04DX003 (ip), vehicle: saline with Tween-80”, the T/C was 96 % of control.

On to `CCCCC(C)(C(=O)OCC)C(=O)OCC`, for which the T/C runs as follows: (dose: 12.5 mg/kg/injection, schedule: Q01DX009 (ip), vehicle: Klucel (hydroxypropylcellulose) (HPC)) 98 % of control; (dose: 25.0 mg/kg/injection, schedule: Q01DX009 (ip), vehicle: Klucel (hydroxypropylcellulose) (HPC)) 98 % of control; (dose: 50.0 mg/kg/injection, schedule: Q01DX009 (ip), vehicle: Klucel (hydroxypropylcellulose) (HPC)) 108 % of control; (dose: 100.0 mg/kg/injection, schedule: Q01DX009 (ip), vehicle: Klucel (hydroxypropylcellulose) (HPC)) 98 % of control; (dose: 200.0 mg/kg/injection, schedule: Q01DX009 (ip), vehicle: Klucel (hydroxypropylcellulose) (HPC)) 98 % of control; (dose: 400.0 mg/kg/injection, schedule: Q01DX009 (ip), vehicle: Klucel (hydroxypropylcellulose) (HPC)) 106 % of control.

In the case of `CCCCCCCCCCC(O)CCCCCCCCCC`, the T/C runs as follows: under setting [1], 100 % of control; under setting [2], 90 % of control; under setting [3], 90 % of control.

Consider `CN1c2ccccc2C2CC(CC#N)CC(=O)C21` (stereo not drawn), for which the T/C reads like this: under setting [4], 96 % of control; (dose: 200.0 mg/kg/injection, schedule: Q01DX001 (ip), vehicle: saline with Tween-80) 93 % of control; under setting [5], 95 % of control.

On to `CC(=O)OCC1OC(N2CN=C(N)NC2=O)C(OC(C)=O)C1OC(C)=O` (stereo not drawn), for which the T/C was 109 % of control (dose: 3.12 mg/kg/injection, schedule: Q01DX009 (ip), vehicle: saline); 108 % of control under setting [8]; 115 % of control and 110 % of control under setting [9]; 178 % of control and 183 % of control (dose: 50.0 mg/kg/injection, schedule: Q01DX009 (ip), vehicle: saline); 203 % of control and 208 % of control under setting [10].

For the molecule `CCCCCCCC(=O)N/N=C(\CO)[C@]1(O)Cc2c(O)c3c(c(O)c2[C@@H](OC2CC(N)C(O)C(C)O2)C1)C(=O)c1c(OC)cccc1C3=O` (stereo partly drawn), the T/C was 124 % of control (dose: 1.5 mg/kg/injection, schedule: Q01DX009 (ip), vehicle: saline); 122 % of control (dose: 3.0 mg/kg/injection, schedule: Q01DX009 (ip), vehicle: saline); 122 % of control (dose: 6.0 mg/kg/injection, schedule: Q01DX009 (ip), vehicle: saline); 118 % of control (dose: 12.0 mg/kg/injection, schedule: Q01DX009 (ip), vehicle: suspension in saline); 162 % of control (dose: 48.0 mg/kg/injection, schedule: Q01DX009 (ip), vehicle: suspension in saline).

With `COc1ccc2c(c1)N(CC(C)C[N+](C)(C)CCCCCCCCCC[N+](C)(C)CC(C)CN1c3ccccc3Sc3ccc(OC)cc31)c1ccccc1S2` (stereo not drawn), the T/C reads like this: under setting [8], 100 % of control; under setting [9], 92 % of control; (dose: 25.0 mg/kg/injection, schedule: Q01DX009 (ip), vehicle: saline) 106 % of control.

`CC(O)CN1CC(C)OC(C)C1` (stereo not drawn): the T/C under setting [10] is 100 % of control; the T/C (dose: 100.0 mg/kg/injection, schedule: Q04DX003 (ip), vehicle: saline) is 103 % of control; the T/C (dose: 200.0 mg/kg/injection, schedule: Q01DX009 (ip), vehicle: saline) was 100 % of control; the T/C (dose: 200.0 mg/kg/injection, schedule: Q04DX003 (ip), vehicle: saline) was 103 % of control; the T/C (dose: 400.0 mg/kg/injection, schedule: Q01DX009 (ip), vehicle: saline) is 100 % of control; the T/C (dose: 400.0 mg/kg/injection, schedule: Q04DX003 (ip), vehicle: saline) is 101 % of control.

For the molecule `Cc1cccc(N=NN(C)C)c1`, the T/C reads like this: (dose: 19.0 mg/kg/injection, schedule: Q01DX009 (ip), vehicle: Klucel (hydroxypropylcellulose) (HPC)) 113 % of control; (dose: 29.0 mg/kg/injection, schedule: Q01DX009 (ip), vehicle: Klucel (hydroxypropylcellulose) (HPC)) 119 % of control; (dose: 44.0 mg/kg/injection, schedule: Q01DX009 (ip), vehicle: Klucel (hydroxypropylcellulose) (HPC)) 123 % of control; (dose: 66.0 mg/kg/injection, schedule: Q01DX009 (ip), vehicle: Klucel (hydroxypropylcellulose) (HPC)) 114 % of control; (dose: 75.0 mg/kg/injection, schedule: Q01DX001 (ip), vehicle: saline) 120 % of control.

For `O=C(SSCCSSCCSSC(=O)N1CCOCC1)N1CCOCC1`, the T/C was 93 % of control (dose: 100.0 mg/kg/injection, schedule: Q01DX001 (ip), vehicle: Klucel (hydroxypropylcellulose) (HPC)); 100 % of control (dose: 200.0 mg/kg/injection, schedule: Q01DX001 (ip), vehicle: Klucel (hydroxypropylcellulose) (HPC)); 93 % of control (dose: 400.0 mg/kg/injection, schedule: Q01DX001 (ip), vehicle: Klucel (hydroxypropylcellulose) (HPC)).

Regarding `CC(NC(=O)CNC(=O)OCc1ccccc1)C(=O)O` (stereo not drawn), the T/C is 98 % of control under setting [1], 96 % of control under setting [2] and 93 % of control under setting [3].

Regarding `COc1ccc(NC(=O)Oc2ccc3ccccc3c2)cc1`, the T/C by setting is: (dose: 100.0 mg/kg/injection, schedule: Q04DX002 (ip), vehicle: saline with Tween-80) 87 % of control; (dose: 200.0 mg/kg/injection, schedule: Q04DX002 (ip), vehicle: saline with Tween-80) 93 % of control; (dose: 400.0 mg/kg/injection, schedule: Q04DX002 (ip), vehicle: saline with Tween-80) 93 % of control.

As to `Cc1nc(N)nc2ccccc12`, the T/C (dose: 100.0 mg/kg/injection, schedule: Q01DX001 (ip), vehicle: saline) was 100 % of control.

For `CC(C)(C)c1cc(C(C)(C)C)c(C(=O)O)c(C(C)(C)C)c1Cl`, the T/C is 101 % of control under setting [1], 97 % of control under setting [2] and 100 % of control under setting [3].
